In patent US8378085B2, “Bacterial ATP synthase binding domain” (priority 2004, dated 2013):

Legend:
[1] = test system: DARQ J mutant M. tuberculosis; type: cell-based, Mycobacterium tuberculosis
[2] = test system: M. tuberculosis strains resistant to J; type: cell-based, Mycobacterium tuberculosis

Structure (SMILES)	effect on ATP production (total cellular ATP) [1]	sensitivity of M. tuberculosis strains resistant to J to the anti-TB agent [2]
C(=NC1CCCCC1)=NC1CCCCC1 [DCCD, reference compound]	able to block the ATP production	–
COc1nc2ccc(Br)cc2cc1[C@@H](c1ccccc1)[C@@](O)(CCN(C)C)c1cccc2ccccc12 [J]	did not show any decrease	–
NCC[C@H](O)C(=O)N[C@@H]1C[C@H](N)[C@@H](O[C@H]2O[C@H](CN)[C@@H](O)[C@H](O)[C@H]2O)[C@H](O)[C@H]1O[C@H]1O[C@H](CO)[C@@H](O)[C@H](N)[C@H]1O [amikacin]	–	unchanged
CC[C@@H](CO)NCCN[C@@H](CC)CO [ethambutol]	–	unchanged
NNC(=O)c1ccncc1 [isoniazid]	–	unchanged
CO[C@H]1/C=C/O[C@@]2(C)Oc3c(C)c(O)c4c(O)c(c(/C=N/N5CCN(C)CC5)c(O)c4c3C2=O)NC(=O)/C(C)=C\C=C\[C@H](C)[C@H](O)[C@@H](C)[C@@H](O)[C@@H](C)[C@H](OC(C)=O)[C@@H]1C [rifampin]	–	unchanged
[H]/N=C(/N)N[C@H]1[C@H](O)[C@@H](O)[C@H](O[C@@H]2O[C@@H](C)[C@](O)(C=O)[C@H]2O[C@@H]2O[C@@H](CO)[C@H](O)[C@@H](O)[C@@H]2NC)[C@@H](N/C(N)=N\[H])[C@@H]1O [streptomycin]	–	unchanged
